Earlier results as cited in US20220400744A1, “POUCHED PRODUCT COMPRISING DISSOLVABLE COMPOSITION” (NICOVENTURES TRADING LIMITED, priority 2021, published 2022).
Where two headings read alike, the source gives them in different places.

What was measured:
[1] = for solubility in water / aqueous environment: water or aqueous environment (e.g., saliva)
[2] = for logP: Table 1, partition coefficient between octanol and water
[3] = when isolated; isomerizes to trans-bixin

Row | Molecule | solubility in water / aqueous environment [1] | logP [2] | other results
1 | CC(/C=C/C=C(C)/C=C/C(=O)O)=C\C=C\C=C(C)\C=C\C=C(C)\C=C\C(=O)O (stereo in doubt) [norbixin, (2E,4E,6E,8E,10E,12E,14E,16E,18E)-4,8,13,17-tetramethylicosa-2,4,6,8,10,12,14,16,18-nonaenedioic acid] | water soluble |  | 
2 | C=C(C)[C@@H]1CCC(C)=C[C@H]1c1c(O)cc(CCCCC)cc1O [CBD, cannabidiol, reference compound] | insoluble |  | logP value ([2]; CBD): about 6.5
3 | COC(=O)/C=C/C(C)=C\C=C\C(C)=C\C=C\C=C(C)\C=C\C=C(C)\C=C\C(=O)O [bixin, (2E,4E,6E,8E,10E,12E,14E,16Z,18E)-20-methoxy-4,8,13,17-tetramethyl-20-oxoicosa-2,4,6,8,10,12,14,16,18-nonaenoic acid] | insoluble |  | solubility in fats and alcohols ([1]; fats and alcohols): soluble; chemical stability [3]: chemically unstable
4 | CC(C)[C@@H]1CC[C@@H](C)C[C@H]1OC(=O)CCC(=O)O [monomenthyl succinate] |  | 3 | 
5 | CN1CCCC1c1cccnc1 (centres unmarked) [nicotine, reference compound] |  |  | partitioning into octanol ([2]; acidic pH, about 6.5 to about 4, protonated form): lower partitioning into octanol; partitioning into octanol ([2]; alkaline pH, about 7.5 to about 9, free base form): high partitioning into octanol
6 | ethyl benzoic acid |  | 2.9 | 
7 | isopropyl benzoic acid |  | 3.5 | 
